Results reported in patent publication US8299238B2, “Steroidogenesis modified cells and methods for screening for endocrine disrupting chemicals” (University of Saskatchewan, priority 2009, dated 2012).

Assays:
[1] = test system: H295R cells; settings: H295R cells (parental or unmodified); cited from earlier work
[2] = in vivo; cited from earlier work
[3] = cited from earlier work
[4] = test system: ER; settings: cited from earlier work
[5] = test system: estrogen receptor; settings: cited from earlier work
[6] = target: T1, aromatase (Homo sapiens, UniProt P11511); settings: human ovarian tumor cells (KGN); cited from earlier work
T1 construct: endogenous in cells; host or cells: KGN human ovarian tumor cells
T1 sequence (P11511 1-503): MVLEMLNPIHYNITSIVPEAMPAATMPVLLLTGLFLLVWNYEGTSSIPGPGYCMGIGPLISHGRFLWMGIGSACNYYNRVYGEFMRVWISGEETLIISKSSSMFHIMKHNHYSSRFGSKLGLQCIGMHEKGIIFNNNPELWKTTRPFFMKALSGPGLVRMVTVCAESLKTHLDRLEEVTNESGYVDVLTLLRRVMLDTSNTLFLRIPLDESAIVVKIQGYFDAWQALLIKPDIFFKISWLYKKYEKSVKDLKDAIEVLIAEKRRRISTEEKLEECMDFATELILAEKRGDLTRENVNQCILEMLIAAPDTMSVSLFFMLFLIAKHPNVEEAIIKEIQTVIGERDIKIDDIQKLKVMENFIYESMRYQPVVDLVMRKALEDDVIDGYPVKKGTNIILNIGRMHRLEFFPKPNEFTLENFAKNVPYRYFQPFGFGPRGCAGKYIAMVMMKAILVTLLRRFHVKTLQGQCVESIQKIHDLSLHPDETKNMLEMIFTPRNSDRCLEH

[7] = target: T2, aromatase (CYP19) (Homo sapiens, UniProt P11511); settings: cited from earlier work
T2 sequence (P11511 1-503): T1 sequence (P11511 1-503)

[8] = test system: esterase; settings: in vitro; cited from earlier work
[9] = test system: female rat primary granulosa cells; settings: cited from earlier work
[10] = test system: H295R cells; assay: Chemical exposure, steroid production in unaltered H295R cells; assay type: cell-based, human; settings: 48 h
Experimental: (§1) For instrumental detection of steroids, culture medium samples were extracted by ethyl acetate/hexane (v/v, 50/50) followed by LC-MS/MS analysis. […] C-d4 was provided by Cambridge (Andover, Mass., USA), other labelled standards were provided by C/D/N Isotope (Pointe-Claire, Quebec, Canada). Test chemicals (e.g. test substances) were obtained from Sigma. […] For all other hormones, chromatography was performed using a nano-pure water and methanol. Sample extract was separated by a 100 mm×2.1 mm Thermo Scientific Betasil C18 column (5 μm pore size) and then analyzed by a triple quadrapole tandem mass spectrometer (Waters, USA). All data were acquired and processed with Analyst Software, Ver. 1.4.1 (ABI-Sciex).
(§2) Cells were exposed to model chemicals in 24-well cell culture plates (COSTAR, Bucks, UK). One ml of cell suspension was added to each well and cells cultured for 24 to 48 h. Cells were exposed to chemicals dissolved in dimethyl sulfoxide (DMSO; Sigma-Aldrich, St. Louis, Mo.). Forskolin (FOR) was obtained from Sigma Chemical Co. (St. Louis, Mo., USA) and Prochloraz (PRO) was purchased from Aldrich (St. Louis, Mo., USA). The culture medium was collected from each well after 48 h and stored at −80° C. until further measurement.

[11] = test system: H295R/CYP21A2-KD cells; assay: Chemical exposure, steroid production in H295R/CYP21A2-KD cells; assay type: cell-based, human
Experimental: as §1, §2

Compound | Effect type: estradiol (E2) production [1] | Effect type: testosterone (T) production [1] | also measured
N#Cc1ccc(C(c2ccc(C#N)cc2)n2cncn2)cc1 [Letrozole] | Strong inhibitor of E2 production. | Weak inhibitor of T production. | –
CC(C)(c1ccc(O)cc1)c1ccc(O)cc1 [Bisphenol A] | inducer | inhibitor | Uterrotrophic assay result [2]: estradiol. Tested positive for ER; Effect on progesterone (synthesis) in vitro [3]: Some evidence that alters; ER binding in vitro [4]: estradiol. Tested positive for ER
C=CC1(C)OC(=O)N(c2cc(Cl)cc(Cl)c2)C1=O (stereo not drawn) [Vinclozolin] | Weak inducer of and moderate | inhibitor of T production. | –
CC(=O)N1CCN(c2ccc(OCC3COC(Cn4ccnc4)(c4ccc(Cl)cc4Cl)O3)cc2)CC1 (stereo not drawn) [Ketoconazole] | Medium to weak inhibitor of E2 | Strong inhibitor of T production; | Effect type: progesterone production [1]: production; Induces progesterone
Nonoxynol-9 | Negative for effects on testosterone | Negative for effects on testosterone | –
OC(c1ccc(Cl)cc1)(c1cncnc1)c1ccccc1Cl (stereo not drawn) [Fenarimol] | not as unequivocal; weak inhibitor of | – | –
CC#C[C@]1(O)CC[C@H]2[C@@H]3CCC4=CC(=O)CCC4=C3[C@@H](c3ccc(N(C)C)cc3)C[C@@]21C [RU-486/mifepristone, mifepristone] | medium to strong inducer of estradiol. | Negative for effects on testosterone; | ER result (mode of action) [5]: Negative for ER very
CCC1(c2ccc(N)cc2)CCC(=O)NC1=O (stereo not drawn) [Aminoglutethimide] | Medium to weak inhibitor of T and E2 | Medium to weak inhibitor of T and E2 | –
O=c1c(-c2ccc(O)cc2)coc2cc(O)cc(O)c12 [Genistein] | Medium inducer of E2 and weak | inhibitor of T production. Weak | Estrogen receptor agonism [5]: estrogen receptor agonist
CCCCOC(=O)c1ccc(O)cc1 [Paraben (Butyl paraben), Butyl paraben] | Weak inducer of E2, and weak | inhibitor of T production. | –
CCCCNC(=O)n1c(NC(=O)OC)nc2ccccc21 [Benomyl] | inducer or negative for E2 production. | Weak inhibitor of T production; Weak | Effect on aromatase activity [6]: Has been shown to induce aromatase; Effect on aromatase (CYP19) activity in vitro [7]: Aromatase inducer in vitro
CCSC(=O)N1CCCCCC1 [Molinate] | – | negative/weak inhibitor of T | Inhibition of esterase activity [8]: vitro, molinate is a poor
C#C[C@]1(O)CC[C@H]2[C@@H]3CCC4=Cc5oncc5C[C@]4(C)[C@H]3CC[C@@]21C [Danazol] | medium to strong inhibitor of estradiol. | Negative for effects on testosterone; | –
CCCCC(CC)COC(=O)c1ccccc1C(=O)O (stereo not drawn) [monoethylhexyl phthalate (MEHP), monoethylhexyl phthalate] | – | – | Effect on estradiol production [9]: (MEHP) has been shown to suppress
CC(C)(C)NC(=O)[C@H]1CC[C@H]2[C@@H]3CC[C@H]4NC(=O)C=C[C@]4(C)[C@H]3CC[C@]12C [Finasteride] | negative for effects on estradiol. | Weak inhibitor of testosterone; | –
CCCN(CCOc1c(Cl)cc(Cl)cc1Cl)C(=O)n1ccnc1 [Prochloraz] | Strong inhibitor of T and E2 | Strong inhibitor of T and E2 | Effect on production of E1 [10]: inhibited; Effect on production of E2 [10]: inhibited; Effect on production of T [10]: inhibited; Effect on progesterone production ([10]; 0.1 μM to 10 μM, dose-dependent): increased; Effect on progesterone production [11]: increased; Effect on production of E1 ([11]; H295R/CYP21A2-KD, 48 h): inhibited; Effect on production of E2 ([11]; H295R/CYP21A2-KD, 48 h): inhibited; Effect on production of T ([11]; H295R/CYP21A2-KD, 48 h): inhibited
CCNc1nc(Cl)nc(NC(C)C)n1 [Atrazine] | Weak inducer of E2 production. | – | Effect on aromatase (CYP19) activity in vitro [7]: Aromatase inducer in vitro
CNC(=O)CSP(=S)(OC)OC [Dimethoate] | increases testosterone and estradiol | increases testosterone and estradiol | Effect on progesterone (synthesis) in vitro [3]: Has been shown to decrease; Effect on aromatase (CYP19) activity in vitro [7]: not affect aromatase activity in vitro;
COc1nc(NC(C)C)nc(NC(C)C)n1 [Prometon] | Weak inducer of E2 production; | Negative for T. | –
CCCCC(CC)COC(=O)c1ccccc1C(=O)OCC(CC)CCCC (stereo not drawn) [Di (2-ethylhexyl) phthalate (DEHP), Di (2-ethylhexyl) phthalate] | inducer of estradiol in H295R cells. | – | –
C[C@]12CC[C@H]3[C@@H](CC[C@@]45O[C@@H]4C(O)=C(C#N)C[C@]35C)[C@@H]1CC[C@@H]2O [Trilostane] | Strong inducer of T and E2 | Strong inducer of T and E2 | –
